This note sets out measurements from ChEMBL document CHEMBL3137667, “[Drug-induced liver injury; fourteenth updated edition of the bibliographic database of liver injuries and related drugs]” (Gastroenterol Clin Biol, 2004).

Data set [1] is described as follows: Times to onset, minimal and maximal, observed in the indexed observations. [column 'DELAI' in source]. Conditions: human.
The conditions of data set [2]: human.
For data set [3] the following is noted: human. The source holds these as a separate data set.
For data set [4] the following is noted: human, serum.
For data set [5] the following is noted: human. This is another data set of the same source.
For data set [6] the following is noted: human, serum. This is another data set of the same source.
Data set [7] in a line: Highest frequency of acute liver toxicity observed during clinical trials, expressed as a percentage. [column '% AIGUE' in source]. Conditions: human.
The conditions of data set [8]: human, serum, 4383 h.
For data set [9] the following is noted: human. The source holds these as a separate data set.
For data set [10] the following is noted: human. This is another data set of the same source.
For data set [11] the following is noted: human. The source holds these as a separate data set.
For data set [12] the following is noted: human. The source holds these as a separate data set.
Data set [13] can be described thus: Highest frequency of moderate liver toxicity observed during clinical trials, expressed as a percentage. [column '% BIOL' in source]. Conditions: human.
For data set [14] the following is noted: human. This is another data set of the same source.
The conditions of data set [15]: human. This is another data set of the same source.
For data set [16] the following is noted: human. This is another data set of the same source.
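Wherever Hepatotoxicity (association with vascular disease) is given: count of indexed literature references reporting vascular liver injury in humans, e.g. peliosis hepatitis, hepatic veno-occlusive disease or Budd-Chiari syndrome.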
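Wherever Hepatotoxicity (benign tumour) is given: value is a count of indexed literature references citing a benign tumour confirmed by histopathology.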
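Wherever Hepatotoxicity (choleostasis) is given: human cholestatic liver injury, shown by histopathology or by peak ALT or AST elevation over alkaline phosphatase ratio below 2, value counts indexed literature reports.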
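Wherever Hepatotoxicity (chronic liver disease) is given: chronic liver injury confirmed by histopathology or persistently raised serum aminotransferase activity beyond 6 months, value given as the count of indexed literature references.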
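Wherever Hepatotoxicity (cirrhosis) is given: value is a count of indexed literature references reporting cirrhosis confirmed by histopathology.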
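Wherever Hepatotoxicity (cytolytic) is given: human cytolytic liver injury, shown by histopathology or by a ratio above 5 of peak ALT or AST elevation to alkaline phosphatase elevation, value counts indexed references.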
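Wherever Hepatotoxicity (granulomatous hepatitis) is given: value is a count of indexed literature references reporting granulomatous liver disease confirmed by histopathology.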
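Wherever Hepatotoxicity (malignant tumour) is given: malignant tumour confirmed by histopathology, value gives the count of indexed literature references reporting it.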
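Wherever Hepatotoxicity (severe hepatitis) is given: human clinical data: severe hepatitis, meaning potentially life-threatening liver failure or clinically observed cases, the value counts how many indexed literature references report it.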
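Wherever Hepatotoxicity (steatosis) is given: steatosis confirmed by histopathology, value is the count of indexed references.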

On to `COc1cc(NS(C)(=O)=O)ccc1Nc1c2ccccc2nc2ccccc12` [AMSACRINE], for which, in data set [1], the “Hepatotoxicity (time to onset)” value is 5 days - 1 month. For the same compound, in [2], the “Hepatotoxicity (animal toxicity known)” value was “yes”. For the same compound, the “Hepatotoxicity (choleostasis)” value in [3] was determined as 0. Besides, the “Hepatotoxicity (moderate)” value in [4] is given as 10; in [13], 41%. In data set [5], the “Hepatotoxicity (benign tumour)” value is on record as 0. Moreover, the figures for the “Hepatotoxicity (acute)” value in data set [6] and in data set [7] were 2 and 0%, respectively. In addition, the “Hepatotoxicity (chronic liver disease)” value in [8] was found to be 0. For the same compound, the “Hepatotoxicity (steatosis)” value in data set [9] is 1. The “Hepatotoxicity (granulomatous hepatitis)” value in data set [10] was 0. The “Hepatotoxicity (malignant tumour)” value in data set [11] stood at 0. The “Hepatotoxicity (association with vascular disease)” value in data set [12] was 0. Further, the “Hepatotoxicity (cytolytic)” value in data set [14] is 2. In data set [15], the “Hepatotoxicity (severe hepatitis)” value is 4. For the same compound, the “Hepatotoxicity (cirrhosis)” value in [16] is reported as 0.

Regarding `Nc1ncn([C@@H]2O[C@H](CO)[C@@H](O)[C@H]2O)c(=O)n1` [AZACITIDINE], the “Hepatotoxicity (time to onset)” value in data set [1] was 1 week. Further, the “Hepatotoxicity (animal toxicity known)” value in data set [2] is reported as “yes”. Also, the “Hepatotoxicity (choleostasis)” value in data set [3] (Liver) worked out at 0. The “Hepatotoxicity (moderate)” value was 5 in data set [4] and 62.5% in [13] (Liver). For the same compound, in [5], the “Hepatotoxicity (benign tumour)” value is reported as 0. Moreover, the “Hepatotoxicity (acute)” value amounted to 1 in data set [6] and 0% in data set [7] (Liver). The “Hepatotoxicity (chronic liver disease)” value in [8] came to 0. In [9], the “Hepatotoxicity (steatosis)” value is recorded as 0. For the same compound, the “Hepatotoxicity (granulomatous hepatitis)” value in data set [10] (Liver) is on record as 0. Further, the “Hepatotoxicity (malignant tumour)” value in data set [11] was 0. Further, the “Hepatotoxicity (association with vascular disease)” value in [12] amounted to 0. In data set [14] (Liver), the “Hepatotoxicity (cytolytic)” value is 1. Besides, the “Hepatotoxicity (severe hepatitis)” value in data set [15] (Liver) is listed as 2. Further, in [16], the “Hepatotoxicity (cirrhosis)” value was 0.

Consider `CCN1CC(CCN2CCOCC2)C(c2ccccc2)(c2ccccc2)C1=O` (stereo not drawn) [DOXAPRAM], for which, in data set [1], the “Hepatotoxicity (time to onset)” value worked out at 1 day - 5 days. In [2], the “Hepatotoxicity (animal toxicity known)” value is recorded as “yes”. Also, the “Hepatotoxicity (choleostasis)” value in data set [3] came to 0. The figures for the “Hepatotoxicity (moderate)” value in data set [4] and in data set [13] were 1 and 0%, respectively. Further, the “Hepatotoxicity (benign tumour)” value in data set [5] is 0. Moreover, the “Hepatotoxicity (acute)” value in data set [6] is given as 1; in data set [7] it was 0%. For the same compound, in data set [8], the “Hepatotoxicity (chronic liver disease)” value was determined as 0. Further, the “Hepatotoxicity (steatosis)” value in data set [9] was determined as 1. Besides, the “Hepatotoxicity (granulomatous hepatitis)” value in [10] turned out to be 0. For the same compound, in data set [11], the “Hepatotoxicity (malignant tumour)” value came out at 0. In addition, in data set [12], the “Hepatotoxicity (association with vascular disease)” value stood at 0. The “Hepatotoxicity (cytolytic)” value in data set [14] is on record as 1. Besides, the “Hepatotoxicity (severe hepatitis)” value in data set [15] is 0. In data set [16], the “Hepatotoxicity (cirrhosis)” value is on record as 0.

Regarding `O=c1[nH]c(=O)n([C@@H]2O[C@H](CO)[C@@H](O)[C@@H]2F)cc1I` [FIALURIDINE], the “Hepatotoxicity (time to onset)” value in data set [1] was 9.5 weeks - 4 months. For the same compound, the “Hepatotoxicity (animal toxicity known)” value in data set [2] was “yes”. Moreover, the “Hepatotoxicity (choleostasis)” value in [3] worked out at 0. The “Hepatotoxicity (moderate)” value in [4] worked out at 0; in data set [13], 0%. The “Hepatotoxicity (benign tumour)” value in [5] stood at 0. For the same compound, the “Hepatotoxicity (acute)” value in data set [6] turned out to be 1; in data set [7] it was 33.3%. For the same compound, the “Hepatotoxicity (chronic liver disease)” value in [8] was determined as 0. The “Hepatotoxicity (steatosis)” value in data set [9] was determined as 1. Moreover, the “Hepatotoxicity (granulomatous hepatitis)” value in [10] was found to be 0. Moreover, the “Hepatotoxicity (malignant tumour)” value in data set [11] came out at 0. The “Hepatotoxicity (association with vascular disease)” value in [12] was 0. In data set [14], the “Hepatotoxicity (cytolytic)” value is reported as 0. Moreover, the “Hepatotoxicity (severe hepatitis)” value in [15] is recorded as 3. Moreover, the “Hepatotoxicity (cirrhosis)” value in data set [16] was 0.

Regarding `COc1ccc2nc(NC(=O)Nc3ccccc3)sc2c1` [FRENTIZOLE], the “Hepatotoxicity (time to onset)” value in data set [1] was determined as 1 week - 1 month. Further, in data set [2], the “Hepatotoxicity (animal toxicity known)” value is recorded as “yes”. For the same compound, the “Hepatotoxicity (choleostasis)” value in data set [3] came out at 0. Besides, the “Hepatotoxicity (moderate)” value in data set [4] was determined as 4; in data set [13], 70%. Further, the “Hepatotoxicity (benign tumour)” value in data set [5] is 0. For the same compound, the “Hepatotoxicity (acute)” value in [6] was determined as 2; in data set [7], 0%. Further, in data set [8], the “Hepatotoxicity (chronic liver disease)” value came out at 1. In data set [9], the “Hepatotoxicity (steatosis)” value is recorded as 0. In addition, the “Hepatotoxicity (granulomatous hepatitis)” value in [10] turned out to be 0. The “Hepatotoxicity (malignant tumour)” value in [11] was 0. In addition, the “Hepatotoxicity (association with vascular disease)” value in data set [12] is given as 0. The “Hepatotoxicity (cytolytic)” value in data set [14] was found to be 2. For the same compound, the “Hepatotoxicity (severe hepatitis)” value in data set [15] is reported as 1. The “Hepatotoxicity (cirrhosis)” value in data set [16] amounted to 0.

As to `O=C(O)/C=C/C(=O)O` [FUMARIC ACID], the “Hepatotoxicity (time to onset)” value in data set [1] came out at 2 months. Moreover, the “Hepatotoxicity (animal toxicity known)” value in [2] is on record as “yes”. The “Hepatotoxicity (choleostasis)” value in [3] was determined as 0. In addition, the “Hepatotoxicity (moderate)” value was 6 in data set [4] and 59% in data set [13]. Also, the “Hepatotoxicity (benign tumour)” value in data set [5] is 0. The entries for the “Hepatotoxicity (acute)” value in data set [6] and in [7] were 0 and 0%, respectively. Besides, the “Hepatotoxicity (chronic liver disease)” value in data set [8] was determined as 0. For the same compound, the “Hepatotoxicity (steatosis)” value in [9] is 0. In addition, the “Hepatotoxicity (granulomatous hepatitis)” value in data set [10] was found to be 0. Besides, in data set [11], the “Hepatotoxicity (malignant tumour)” value was 0. The “Hepatotoxicity (association with vascular disease)” value in data set [12] was 0. Further, the “Hepatotoxicity (cytolytic)” value in [14] turned out to be 0. Further, the “Hepatotoxicity (severe hepatitis)” value in data set [15] worked out at 0. The “Hepatotoxicity (cirrhosis)” value in data set [16] worked out at 0.

On to `CCN(CC)CCNc1ccc(CO)c2sc3ccccc3c(=O)c12` [HYCANTHONE], for which the “Hepatotoxicity (time to onset)” value in [1] is 1 day - 18 days. In data set [2], the “Hepatotoxicity (animal toxicity known)” value is “yes”. In [3], the “Hepatotoxicity (choleostasis)” value stood at 1. Besides, the “Hepatotoxicity (moderate)” value in data set [4] came to 1; in data set [13] it was 0%. Moreover, the “Hepatotoxicity (benign tumour)” value in [5] is on record as 0. Further, the “Hepatotoxicity (acute)” value in [6] was found to be 7; in data set [7] it was 0%. Besides, the “Hepatotoxicity (chronic liver disease)” value in data set [8] is reported as 1. Besides, in data set [9], the “Hepatotoxicity (steatosis)” value is given as 1. In addition, the “Hepatotoxicity (granulomatous hepatitis)” value in data set [10] stood at 0. The “Hepatotoxicity (malignant tumour)” value in data set [11] is recorded as 0. The “Hepatotoxicity (association with vascular disease)” value in data set [12] came out at 0. Moreover, the “Hepatotoxicity (cytolytic)” value in [14] came out at 3. The “Hepatotoxicity (severe hepatitis)” value in [15] came to 16. Also, the “Hepatotoxicity (cirrhosis)” value in data set [16] stood at 0.

As to `CC(C)[C@](O)(C(=O)OCC1=CC[N+]2([O-])CC[C@@H](O)[C@@H]12)[C@H](C)O` (stereo partly drawn) [INDICINE N-OXIDE], the “Hepatotoxicity (time to onset)” value in data set [1] is reported as 1 cure - 2 cures. Moreover, in data set [2], the “Hepatotoxicity (animal toxicity known)” value was “yes”. Besides, in data set [3], the “Hepatotoxicity (choleostasis)” value worked out at 0. For the same compound, the entries for the “Hepatotoxicity (moderate)” value in [4] and in data set [13] were 8 and 62.5%, respectively. In addition, the “Hepatotoxicity (benign tumour)” value in [5] turned out to be 0. In addition, the “Hepatotoxicity (acute)” value amounted to 6 in [6] and 22.7% in data set [7]. The “Hepatotoxicity (chronic liver disease)” value in [8] was 0. Further, in [9], the “Hepatotoxicity (steatosis)” value is 0. In addition, the “Hepatotoxicity (granulomatous hepatitis)” value in data set [10] was 0. Also, the “Hepatotoxicity (malignant tumour)” value in [11] stood at 0. Besides, the “Hepatotoxicity (association with vascular disease)” value in [12] is on record as 1. Also, the “Hepatotoxicity (cytolytic)” value in data set [14] was determined as 4. The “Hepatotoxicity (severe hepatitis)” value in data set [15] was found to be 4. The “Hepatotoxicity (cirrhosis)” value in [16] was determined as 0.
